Results as given in patent publication US20220160721A1, “METHODS OF TREATING CANCER” (Epizyme, Inc., priority 2016, published 2022).

What was measured:
COV434 = assay: Time course annexin and cell cycle, COV434; type: cell-based; settings: COV434, after 3 days through day 14
Procedure: (§1) 1×10^5 harvested cells were plated in triplicate in 96-well format and stained with Millipore's Guava Nexin reagent for 1 hr at RT. Percentages of cells undergoing apoptosis were measured using Millipore's Guava EasyCyte Flow Cytometer. For cell cycle analysis, 5×10^5 cells were plated in a 96 well plate, washed once with PBS, and fixed overnight in ice-cold 70% ethanol at 4° C. Fixed cells were washed with PBS, then stained with Millipore's Guava Cell Cycle Reagent and data obtained from EasyCyte Flow Cytometer.

[1] = Plasma exposure in xenograft efficacy studies; type: in vivo, BALB/c nude mice; settings: plasma collected 5 minutes prior or 3 hours post final dose, all models
Procedure: (§2) In vivo efficacy studies: For the in vivo efficacy studies, there were 10 mice per dose group and each mouse was inoculated subcutaneously at the right flank. All cells were suspended in a 0.2 mL mixture of base media and Matrigel at 1:1 for tumor development. Bin-67 cells were inoculated at 5×10^6 cells/mouse and treatment began when the mean tumor sizes reached 146.08 mm^3 (28 days post-inoculation). COV434 cells were inoculated at 1×10^7 cells/mouse and treatment began when mean tumor sizes reached 158.88 mm^3 (20 days post-inoculation). TOV112D cells were inoculated at 5×10^6 cells/mouse and treatment began when the mean tumor size reached 128.13 mm^3 (day 14 post inoculation). Mice were assigned into groups using a randomized block design. […] Body weights were measured twice a week for the duration of the study. Tumor size was measured twice weekly in two dimensions using a caliper, and the volume was expressed in cubic millimeters. Animals were euthanized 3 hours post-final dose, with blood and tissues collected for analysis.

H3K27me3 = H3K27me3 ELISA in xenograft tumors; settings: tumors harvested at study endpoints, ratio of H3K27me3 to total H3 by ELISA
[2] = mouse, in vivo, po
Procedure: as §2

Oral bioavailability = settings: in vivo
TOV112D xenografts = assay: In vivo efficacy study, TOV112D xenograft; parameters: species or system BALB/c nude mice; settings: day 14
Procedure: as §2

Bin-67 = assay: Time course annexin and cell cycle, Bin-67; type: cell-based; settings: Bin-67, apoptotic events as early as day 4
Procedure: as §1, with “Percentages” for “1×10^5 harvested cells were plated in triplicate in 96-well format and stained with Millipore's Guava Nexin reagent for 1 hr at RT. Percentages”

SMARCA2 = SMARCA2 expression upon treatment in SCCOHT cell lines; type: cell-based; settings: over time
JHOS-2 = assay: Time course annexin and cell cycle, JHOS-2; type: cell-based; settings: JHOS-2 (wild type for both SMARCA2 and SMARCA4)
Procedure: as §1, with “Percentages” for “1×10^5 harvested cells were plated in triplicate in 96-well format and stained with Millipore's Guava Nexin reagent for 1 hr at RT. Percentages”

COV434 xenografts = assay: In vivo efficacy study, COV434 xenograft; parameters: species or system BALB/c nude mice
Bin-67 xenografts = assay: In vivo efficacy study, Bin-67 xenograft; parameters: species or system BALB/c nude mice; settings: day 18
Procedure: as §2

Structure (SMILES): CCN(c1cc(-c2ccc(CN3CCOCC3)cc2)cc(C(=O)NCc2c(C)cc(C)[nH]c2=O)c1C)C1CCOCC1 [tazemetostat]
- cell cycle and apoptosis (COV434): increase in the percentage of cells in sub-G1 phase and a concomitant reduction in G2 phase
- systemic exposure in plasma [1]: Dose-dependent systemic exposure
- H3K27me3 levels in tumors (H3K27me3): robust inhibition
- tolerability, bodyweight loss and clinical observations [2]: well tolerated with minimal bodyweight loss and no other clinical observations
- oral bioavailability (Oral bioavailability): orally bioavailable
- tumor growth inhibition (TGI) (TOV112D xenografts; 125 mg/kg orally BID): 28%
- tumor growth inhibition (TGI) (TOV112D xenografts; 500 mg/kg orally BID): 35%
- cell cycle and apoptosis (Bin-67): more modest increase in the percentage of sub-G1 cells
- SMARCA2 expression (SMARCA2): time-dependent increases in SMARCA2 expression
- cell cycle and apoptosis (JHOS-2): did not show any cell cycle changes or apoptotic events
- tumor growth inhibition (TGI) (COV434 xenografts; 125 mg/kg orally BID, day 28): 74%
- tumor regrowth (COV434 xenografts; 500 mg/kg cohort, 28 days after dose cessation): not observed
- animals having unmeasurable tumors (COV434 xenografts; 500 mg/kg orally BID, day 28): 7 of the 8
- tumor response (COV434 xenografts; 500 mg/kg orally BID, day 28): complete regressions
- tumor growth inhibition (TGI) (Bin-67 xenografts; 125 mg/kg orally BID): 56%
- tumor growth inhibition (TGI) (Bin-67 xenografts; 250 mg/kg orally BID): 87%
- average tumor volume (Bin-67 xenografts; 500 mg/kg orally BID): 41 mm^3
- tumor response (Bin-67 xenografts; 500 mg/kg orally BID): regressions in all 10 animals
